Common to all, as to assay type: biochemical
Test [1] concerns the target T1, MAGL (Homo sapiens, UniProt Q99685).
T1 construct: Proteomes (human prefrontal cortex or cell membrane fractions); from tissue; host or cells: human prefrontal cortex (or cell membrane fractions)
T1 sequence (Q99685 1-303): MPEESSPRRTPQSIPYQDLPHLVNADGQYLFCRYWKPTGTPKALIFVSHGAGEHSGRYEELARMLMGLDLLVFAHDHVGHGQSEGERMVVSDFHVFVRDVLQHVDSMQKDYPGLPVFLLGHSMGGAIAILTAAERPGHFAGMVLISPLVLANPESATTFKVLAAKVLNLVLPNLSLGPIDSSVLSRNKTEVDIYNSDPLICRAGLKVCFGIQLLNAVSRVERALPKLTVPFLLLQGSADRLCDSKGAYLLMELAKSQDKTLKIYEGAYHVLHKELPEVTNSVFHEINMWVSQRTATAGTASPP
In words: In vitro competitive activity-based protein profiling (human), MAGL gel band. As to the method: In Vitro Competitive Activity-Based Protein Profiling (Human).
Proteomes (human prefrontal cortex or cell membrane fractions) (50 μL, 1.0-2.0 mg/mL total protein concentration) were preincubated with varying concentrations of inhibitors at 37° C. After 30 min, FP-Rh or JW912 (1.0 μL, 50 μM in DMSO) was added and the mixture was incubated for another 30 min at room temperature. Reactions were quenched with SDS loading buffer (15 μL—4×) and run on SDS-PAGE. Following gel imaging, serine hydrolase activity was determined by measuring fluorescent intensity of gel bands corresponding to MAGL using ImageJ 1.49k software.

Test [2] has as its target T2, MAGL (Mus musculus, UniProt O35678).
T2 construct: Proteomes (mouse brain membrane fraction or cell lysates); from tissue; host or cells: mouse brain membrane fraction (or cell lysates)
T2 sequence (O35678 1-303): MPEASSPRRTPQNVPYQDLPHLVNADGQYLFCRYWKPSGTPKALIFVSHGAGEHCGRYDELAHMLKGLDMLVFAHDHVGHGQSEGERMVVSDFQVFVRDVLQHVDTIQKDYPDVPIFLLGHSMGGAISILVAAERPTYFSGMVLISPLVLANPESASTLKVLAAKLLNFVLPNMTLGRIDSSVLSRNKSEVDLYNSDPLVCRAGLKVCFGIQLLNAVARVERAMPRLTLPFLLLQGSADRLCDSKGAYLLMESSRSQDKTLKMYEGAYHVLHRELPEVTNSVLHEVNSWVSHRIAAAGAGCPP
In words: In vitro competitive activity-based protein profiling (mouse), MAGL gel band. As to conditions: read-out: MAGL % inh. 1 μM. The essentials: (§1)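 Gel-based competitive ABPP: proteome 1.0 mg/mL, inhibitor 30 min 37 °C, then FP-Rh or HT-01 probe (stock 50 μM) 30 min 37 °C; SDS quench, SDS-PAGE, in-gel fluorescence of the enzyme band quantified.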

Test [3] concerns the target T3, FAAH (Mus musculus, UniProt O08914).
T3 construct: Proteomes (mouse brain membrane fraction or cell lysates); from tissue; host or cells: mouse brain membrane fraction (or cell lysates)
T3 sequence (O08914 1-579): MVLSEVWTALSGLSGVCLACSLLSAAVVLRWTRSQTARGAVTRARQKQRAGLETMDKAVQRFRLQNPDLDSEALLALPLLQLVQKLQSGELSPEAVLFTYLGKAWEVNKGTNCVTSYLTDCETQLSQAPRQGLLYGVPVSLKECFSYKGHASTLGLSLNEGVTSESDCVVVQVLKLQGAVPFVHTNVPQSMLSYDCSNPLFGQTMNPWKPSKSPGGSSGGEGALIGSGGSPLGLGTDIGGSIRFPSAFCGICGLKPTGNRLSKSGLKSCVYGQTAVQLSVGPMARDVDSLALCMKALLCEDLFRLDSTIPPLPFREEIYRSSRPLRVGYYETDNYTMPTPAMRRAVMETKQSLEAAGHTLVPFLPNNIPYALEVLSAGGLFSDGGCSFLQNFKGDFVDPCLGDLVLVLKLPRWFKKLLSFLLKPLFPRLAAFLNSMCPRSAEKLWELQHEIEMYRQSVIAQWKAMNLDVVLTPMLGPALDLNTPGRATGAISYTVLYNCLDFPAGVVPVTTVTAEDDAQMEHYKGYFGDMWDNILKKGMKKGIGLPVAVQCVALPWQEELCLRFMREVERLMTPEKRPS
In words: In vitro competitive activity-based protein profiling (mouse), FAAH gel band. As to conditions: read-out: FAAH % inh. 1 μM. The essentials:
as §1

As a reminder, the IC50 is the concentration that inhibits the measured activity by half. High values mean weaker potency in that assay, low ones greater potency in that assay. In test [1], `CS(=O)(=O)Nc1ccn(C(=O)N2CCN(Cc3cc(C(F)(F)F)ccc3N3CCCC3)CC2)n1` [Example 180, N-(1-(4-(2-(pyrrolidin-1-yl)-5-(trifluoromethyl)benzyl)piperazine-1-carbonyl)-1H-pyrazol-3-yl) methanesulfonamide] yielded an IC50 of no more than 100 nM. Moreover, the inhibition at 1 µM in test [2] is no less than 75%; in test [3] it was 0 to 25%.

In test [1], `CS(=O)(=O)Nc1ccn(C(=O)N2CCN(Cc3ccc(C(F)(F)F)cc3N3CCN(C(=O)N4CCC4)CC3)CC2)n1` [Example 187, N-(1-(4-(2-(4-(azetidine-1-carbonyl)piperazin-1-yl)-4-(trifluoromethyl)benzyl)piperazine-1-carbonyl)-1H-pyrazol-3-yl) methanesulfonamide] displayed an IC50 of 100 to 1000 nM. Moreover, the inhibition at 1 µM in test [2] is no less than 75%; in test [3], 0 to 25%.

As to `CC1CCCN1c1cc(C(F)(F)F)ccc1CN1CCN(C(=O)n2ccc(NS(C)(=O)=O)n2)CC1` (stereo not drawn) [Example 189, N-(1-(4-(2-(2-methylpyrrolidin-1-yl)-4-(trifluoromethyl)benzyl)piperazine-1-carbonyl)-1H-pyrazol-3-yl) methanesulfonamide], the IC50 in test [1] is no more than 100 nM. The inhibition at 1 µM is no less than 75% in test [2] and 0 to 25% in test [3].

In turn, `CS(=O)(=O)Nc1ccn(C(=O)N2CCN(Cc3ccc(C(F)(F)F)cc3N3CCC(C(=O)O)C3)CC2)n1` (stereo not drawn) [Example 190, 1-(2-((4-(3-(methylsulfonamido)-1H-pyrazole-1-carbonyl)piperazin-1-yl)methyl)-5-(trifluoromethyl)phenyl) pyrrolidine-3-carboxylic acid] returned an IC50 in test [1] of no more than 100 nM. Moreover, the inhibition at 1 µM is no less than 75% in test [2] and 0 to 25% in test [3].

`CC1CCCN1c1cc(CN2CCN(C(=O)n3ccc(NS(C)(=O)=O)n3)CC2)cc(C(F)(F)F)c1` (stereo not drawn) [Example 191, N-(1-(4-(3-(2-methylpyrrolidin-1-yl)-5-(trifluoromethyl)benzyl)piperazine-1-carbonyl)-1H-pyrazol-3-yl) methanesulfonamide] came in with an IC50 in test [1] of no more than 100 nM. For the same compound, the inhibition at 1 µM in test [2] is no less than 75%; in test [3], 0 to 25%.

As to `CS(=O)(=O)Nc1ccn(C(=O)N2CCN(Cc3cc(N4CCC4)cc(C(F)(F)F)c3)CC2)n1` [Example 192, N-(1-(4-(3-(azetidin-1-yl)-5-(trifluoromethyl)benzyl)piperazine-1-carbonyl)-1H-pyrazol-3-yl) methanesulfonamide], in test [1], the IC50 is no more than 100 nM. The inhibition at 1 µM was no less than 75% in test [2] and 0 to 25% in test [3].

In test [1], `CS(=O)(=O)Nc1ccn(C(=O)N2CCC3(CCCN3Cc3cc(Cl)cc(N4CCCC4)c3)CC2)n1` [Example 193, N-(1-(1-(3-chloro-5-(pyrrolidin-1-yl)benzyl)-1,8-diazaspiro[4.5]decane-8-carbonyl)-1H-pyrazol-3-yl) methanesulfonamide] gave an IC50 of no more than 100 nM. In addition, the inhibition at 1 µM in test [2] is no less than 75%; in test [3] it was 0 to 25%.

Take `CS(=O)(=O)Nc1ccn(C(=O)N2CCN(Cc3cc(N4CCCC4)ccc3Cl)CC2)n1` [Example 194, N-(1-(4-(2-chloro-5-(pyrrolidin-1-yl)benzyl)piperazine-1-carbonyl)-1H-pyrazol-3-yl) methanesulfonamide]: the IC50 in test [1] is 100 to 1000 nM. In addition, the figures for the inhibition at 1 µM in test [2] and in test [3] were no less than 75% and 0 to 25%, respectively.

Compound `CS(=O)(=O)Nc1ccn(C(=O)N2CCN(Cc3ccc(C(F)(F)F)cc3N3CCC(F)CC3)CC2)n1` [Example 196, N-(1-(4-(2-(4-fluoropiperidin-1-yl)-4-(trifluoromethyl)benzyl)piperazine-1-carbonyl)-1H-pyrazol-3-yl) methanesulfonamide] came in with a concentration for half-maximal inhibition (IC50) in test [1] of no more than 100 nM. Besides, the results for the inhibition at 1 µM in test [2] and in test [3] were no less than 75% and 0 to 25%, respectively.

For the compound `CS(=O)(=O)Nc1ccn(C(=O)N2CCC3(CCCN3Cc3ccc(C(F)(F)F)cc3Cl)CC2)n1` [Example 197, N-(1-(1-(2-chloro-4-(trifluoromethyl)benzyl)-1,8-diazaspiro[4.5]decane-8-carbonyl)-1H-pyrazol-3-yl) methanesulfonamide], the IC50 in test [1] was no more than 100 nM. Moreover, the inhibition at 1 µM in test [2] is no less than 75%; in test [3], 0 to 25%.

For the compound `CS(=O)(=O)Nc1ccn(C(=O)N2CCC3(CCCN3Cc3cc(Cl)cc(C(F)(F)F)c3)CC2)n1` [Example 198, N-(1-(1-(3-chloro-5-(trifluoromethyl)benzyl)-1,8-diazaspiro[4.5]decane-8-carbonyl)-1H-pyrazol-3-yl) methanesulfonamide], the half-inhibitory concentration (IC50) in test [1] is no more than 100 nM. In addition, the inhibition at 1 µM in test [2] is no less than 75%; in test [3], 25 to 50%.

In turn, `CS(=O)(=O)Nc1ccn(C(=O)N2CCN(Cc3ccc(C(F)(F)F)cc3N3CC4COCC4C3)CC2)n1` (stereo not drawn) [Example 205, N-(1-(4-(2-(tetrahydro-1H-furo[3,4-c]pyrrol-5(3H)-yl)-4-(trifluoromethyl)benzyl)piperazine-1-carbonyl)-1H-pyrazol-3-yl) methanesulfonamide] returned an IC50 in test [1] of no more than 100 nM. Also, the inhibition at 1 µM in test [2] is no less than 75%; in test [3], 0 to 25%.

Compound `CS(=O)(=O)Nc1ccn(C(=O)N2CCN(Cc3ccc(C(F)(F)F)cc3N3C4CCC3COC4)CC2)n1` [Example 206, N-(1-(4-(2-(3-oxa-8-azabicyclo[3.2.1]octan-8-yl)-4-(trifluoromethyl)benzyl)piperazine-1-carbonyl)-1H-pyrazol-3-yl) methanesulfonamide] registered an IC50 in test [1] of no more than 100 nM. For the same compound, the inhibition at 1 µM in test [2] was no less than 75%; in test [3], 0 to 25%.

In turn, `CS(=O)(=O)Nc1ccn(C(=O)N2CCN(Cc3ccc(C(F)(F)F)cc3N3C4CCC3CN(S(C)(=O)=O)C4)CC2)n1` [Example 208, N-(1-(4-(2-(3-(methylsulfonyl)-3,8-diazabicyclo[3.2.1]octan-8-yl)-4-(trifluoromethyl)benzyl)piperazine-1-carbonyl)-1H-pyrazol-3-yl) methanesulfonamide] showed an IC50 in test [1] of no more than 100 nM. The inhibition at 1 µM was no less than 75% in test [2] and 0 to 25% in test [3].

In test [1], `CS(=O)(=O)Nc1ccn(C(=O)N2CCN(Cc3ccc(C(F)(F)F)cc3N3CCC(S(C)(=O)=O)CC3)CC2)n1` [Example 209, N-(1-(4-(2-(4-(methylsulfonyl)piperidin-1-yl)-4-(trifluoromethyl)benzyl)piperazine-1-carbonyl)-1H-pyrazol-3-yl) methanesulfonamide] yielded an IC50 of no more than 100 nM. Further, the figures for the inhibition at 1 µM in test [2] and in test [3] were no less than 75% and 0 to 25%, respectively.

In test [1], `C#Cc1ccc(CN2CCN(C(=O)n3ccc(NC(C)=O)n3)CC2)cc1` [Example 210, N-(1-(4-(4-ethynylbenzyl)piperazine-1-carbonyl)-1H-pyrazol-3-yl) acetamide] had an IC50 of no more than 100 nM. The figures for the inhibition at 1 µM in test [2] and in test [3] were no less than 75% and 0 to 25%, respectively.

In turn, `CS(=O)(=O)Nc1ccn(C(=O)N2CCN(Cc3ccc(C(F)(F)F)cc3-c3nccs3)CC2)n1` [Example 211, N-(1-(4-(2-(thiazol-2-yl)-4-(trifluoromethyl)benzyl)piperazine-1-carbonyl)-1H-pyrazol-3-yl) methanesulfonamide] returned an IC50 in test [1] of no more than 100 nM. Besides, the inhibition at 1 µM is no less than 75% in test [2] and 0 to 25% in test [3].

The values above are taken from patent US10519134B2, “Pyrazole compounds and methods of making and using same” (Lundbeck La Jolla Research Center, Inc., priority 2015, dated 2019).
